For assay [1], the system named is tubulin. Put plainly: MA IC50 (Tables 12-26, abbreviation not defined). In kind it is biochemical.
For assay [2], the system named is tubulin. Put plainly: CD IC50 (Tables 12-26, abbreviation not defined). In kind it is binding.
For assay [3], the system named is K562 human myelogeneous leukaemia cell line. The assay can be described thus: Cytotoxicity/growth inhibition assay (MTT), K562. In kind it is cell-based. The text has this: In addition to the cell lines described in this paper, other established human cell lines (K562, HUVEC, H460, BE, H529, and HT29) were used in the cytotoxicity/growth inhibition assay. • (1) Inhibition of tubulin assembly. The figure quoted is the concentration required to reduce assembly of tubulin by 50%. Tubulin assembly is monitored by light scatter/absorption at 350 nm.
(2) Competition for the colchicine binding site on tubulin. The figure quoted represents the % of ^3H-colchicine bound following co-incubation of test compound and ^3H-cochicine with isolated tubulin. Where ester pro-drugs were used the experiments were carried out in the presence and absence of porcine liver esterase. • (3) Cytotoxicity/growth inhibition assay. This was carried out by the MTT assay. • (4) Permeability (shape-change) assay in endothelial cells. […] This involved the diffusion of a fluorescently labelled dextran through a barrier of endothelial cells (HUVEC) grown to confluence on a porous membrane. The effect of agents to alter the shape of these cells results in an increase in the permeability of the cells to the dye. The figure represents the increase in permeability over control cultures when drug is added (30 minutes, 1 mM.). • (5) Experiments to study the anti-vascular effects of these agents were carried out as described previously by our group. […] The anti-vascular effects of the agents were monitored by either positron emission tomography (PET) or by histologogical examination following treatment of mice bearing T50:80 murine breast tumours, or H460 human lung tumours. • (6) Anti-tumour efficacy of agents was determined in xenografts of H460 human lung cancer. Animals (n=5) were trated either with 5 daily injections and tumour size measured with time following treatment. • (7) The pharmacokinetic profile of agents was determined in mice following injection with drug. Blood was taken at various times following treatment and analysed by HPLC with UV detection. […] (AND(P)H:quinone oxidoreductace, EC 1.6.99.2). DT-diaphorase is an enzyme over-expressed in a number of human tumours. […] This two-electron reducing enzyme can be used to selectively activate prodrugs within cancers which over-express the enzyme.

Assay [4] deals with K562 cells. Put plainly: In situ ultra violet irradiation of dosed K562 cells, IC50. In kind it is cell-based, human. To be noted: read-out: IC50 K562 (Nm). As to the method:
Previously, the isomerisation study had been performed ex situ, i.e. in a photochemical reactor. However, it was necessary to illustrate the potential of the process as a real therapy by repeating the isomerization in the presence of the caner cells i.e. in situ. […] Following irradiation, the cells were incubated in the normal way and the IC50 values were determined.
These consisted of i) exposing K562 cells only (i.e. cells which were not dosed with any potential drug candidate) to ultra violet light, ii) preventing K562 cells dosed with drug candidate from being exposed to ultra violet light, and iii) preventing K562 cells only (i.e. cells which were not dosed with any potential drug candidate) from being exposed to ultra violet light. […]

Assay [5] has as its system K562. The assay can be described thus: K562 cell cycle analysis. Type of assay: cell-based, human. To be noted: K562.
The mark [6] stands for this setting: Homo sapiens, K562, Table 22, read-out: MTT (K582) IC50.
The mark [7] stands for this setting: Homo sapiens, K562, MTT, read-out: K562 IC50.
Setting [8] is: Table 22, read-out: MTT (K582) IC50.
The mark [9] stands for this setting: of cells with DNA content = 2 n or >2 n.

Read-outs that look alike come from different tables or passages of the source.

On to `COc1ccc(C=C(CO)c2cc(OC)c(OC)c(OC)c2)cc1O` [Compound 82], for which the IC50 in assay [1] is more than 10 µM; in assay [2], more than 25 µM; in assay [3] (setting [6]) it was more than 50 µM.

Take `COc1ccc(/C=C\c2cc(OC)c(OC)c(O[Si](C)(C)C(C)(C)C)c2)cc1F` [Compound 240]: the IC50 in assay [1] was more than 10 µM; in assay [2], more than 25 µM; in assay [3] (setting [7]) it was 0.5 µM.

On to `COc1ccc(/C=C\c2cc(C)c(C)c(C)c2)cc1Oc1c(F)c(F)nc(F)c1F` [Compound 27, (Z)-1-(3′,4′,5′-trimethylphenyl)-2-(3″-(2′″,3′″,5′″,6′″-tetrafluoropyridoxy)-4″-methoxyphenyl)ethene], for which the IC50 in assay [3] (setting [7]) worked out at 9 µM.

For the compound `CCOc1cc(/C=C/c2ccc(OC)c(Cl)c2)cc(OCC)c1OCC` [Compound 258], the IC50 was more than 10 µM in assay [1]; more than 25 µM in assay [2]; 7 µM in assay [3] (MTT, read-out: K562 IC50).

`COc1ccc(/C=C/c2cc(OC)c(OC)c(OC)c2)cc1Br` [Compound 96]: the IC50 in assay [1] was more than 10 µM; in assay [2], more than 25 µM; in assay [3] (MTT, read-out: K562 IC50), 7.83 µM.

For the compound `CCOc1cc(/C=C/c2ccc(OC)cc2)cc(OCC)c1OCC` [Compound 250], the IC50 is more than 10 µM in assay [1]; more than 25 µM in assay [2]; more than 50 µM in assay [3] (MTT, read-out: K562 IC50).

For “4-[2′-methoxy-4′-({2″-methoxy-5″-[(E)-2′″-3′″,4′″,5′″-trimethoxyphenyl)ethenyl]phenoxy}methyl)-5′-nitrophenoxy]butanoic acid(potassium salt) [Compound E-12]”, the IC50 was more than 50 µM in assay [4] (in situ UV 0 mins (Table 10)); 1.01 µM in assay [4] (in situ UV 0.5 mins (Table 10)); 0.41 µM in assay [4] (in situ UV 1 mins (Table 10)); 0.3 µM in assay [4] (in situ UV 1.5 mins (Table 10)); 0.16 µM in assay [4] (in situ UV 2 mins (Table 10)); 0.05 µM in assay [4] (in situ UV 3 mins (Table 10)). In addition, the IC50 in assay [4] (in situ UV 4 mins (Table 10)) stood at 0.058 µM; in assay [4] (in situ UV 5 mins (Table 10)) it was 0.046 µM; in assay [4] (in situ UV 7.5 mins (Table 10)), 0.022 µM; in assay [4] (in situ UV 10 mins (Table 10)) it was 0.016 µM; in assay [4] (in situ UV 12.5 mins (Table 10)) it was 0.012 µM; in assay [4] (in situ UV 15 mins (Table 10)) it was 0.01 µM. Besides, the IC50 in assay [4] (in situ UV 17.5 mins (Table 10)) worked out at 0.009 µM; in assay [4] (in situ UV 20 mins (Table 10)) it was 0.008 µM.

For the compound `COc1ccc(/C=C(\C)c2cc(OC)c(OC)c(OC)c2)cc1` [Compound 23b, E-1-(4′-Methoxyphenyl)-2-(3″,4″,5″-trimethoxyphenyl)propene], the IC50 in assay [3] (setting [7]) was determined as 0.79 µM.

Regarding `CC/C(=C\c1ccc(OC)c(O[Si](C)(C)C(C)(C)C)c1)c1cc(OC)c(OC)c(OC)c1` [Compound 218], the results for the IC50 in assay [1], in assay [2] and in assay [3] (setting [8]) were more than 10 µM, more than 25 µM and 3.4 µM, respectively.

For `COc1ccc(/C=C/c2cc(OC)c(OC)c(O[Si](C)(C)C(C)(C)C)c2)cc1F` [Compound 241], the IC50 in assay [1] is more than 10 µM; in assay [2] it was more than 25 µM; in assay [3] (MTT, read-out: K562 IC50), 10 µM.

In the case of `CCOc1cc(C=Cc2ccc(OC)cc2)cc(OCC)c1OCC` [Compound 249], the IC50 in assay [1] is more than 10 µM; in assay [2] it was more than 25 µM; in assay [3] (setting [7]), 0.5 µM.

Regarding `CCC(=Cc1ccc(OC)c(O[Si](C)(C)C(C)(C)C)c1)c1cc(OC)c(OC)c(OC)c1` [Compound 217], the IC50 in assay [1] is more than 10 µM; in assay [2] it was more than 25 µM; in assay [3] (setting [6]), 0.5 µM.

As for `COc1ccc(/C=C(/C)c2cc(OC)c(OC)c(OC)c2)cc1` [Compound 23a, Z-1-(4′-Methoxyphenyl)-2-(3″,4″,5″-trimethoxyphenyl)propene], the IC50 in assay [3] (setting [7]) was 0.1 µM.

With `COc1ccc(C=C(C(=O)O)c2cc(OC)c(OC)c(OC)c2)cc1O` [Compound 80], the IC50 in assay [1] is more than 10 µM; in assay [2], more than 25 µM; in assay [3] (setting [6]), more than 50 µM.

For `COc1ccc(/C=C\c2cc(O)c(OC)c(OC)c2)cc1F` [Compound 242], the IC50 in assay [1] worked out at 1.25 µM. Besides, in assay [5], the “% of cells with DNA content <2 n” value worked out at 29%. Besides, in assay [5] (setting [9]), the “% of cells in G0–G1” value turned out to be 7%, the “% of cells in G2-M” value came to 71% and the “% of cells in S phase” value stood at 22%. The compound also yielded an IC50 in assay [2] of 9 µM. In addition, the IC50 in assay [3] (setting [7]) was 0.02 µM.

On to `CCOc1cc(/C=C/c2ccc(OC)c(Br)c2)cc(OCC)c1OCC` [Compound 248], for which the IC50 in assay [1] was more than 10 µM; in assay [2] it was more than 25 µM; in assay [3] (MTT, read-out: K562 IC50), more than 50 µM.

As to `CCOc1cc(/C=C/c2ccc(OC)c(F)c2)cc(OCC)c1OCC` [Compound 252], the IC50 is more than 10 µM in assay [1]; more than 25 µM in assay [2]; more than 50 µM in assay [3] (MTT, read-out: K562 IC50).

For `CCOc1cc(C=Cc2ccc(OC)c(Br)c2)cc(OCC)c1OCC` [Compound 247], the IC50 in assay [1] was more than 10 µM; in assay [2], more than 25 µM; in assay [3] (setting [7]) it was 0.6 µM.

Consider `CCOc1cc(C=Cc2ccc(OC)c(Br)c2)cc(OCC)c1OCC` [Compound 255], for which the values for the IC50 in assay [1] and in assay [2] were more than 10 µM and more than 25 µM, respectively.

As to `COc1ccc(/C=C(/C)c2cc(OC)c(OC)c(OC)c2)cc1O[Si](C)(C)C(C)(C)C` [Compound 17a, Z-(3′-t-butyldimethylsilyloxy-4′-methoxyphenyl)-2-(3″,4″,5″-trimethoxyphenyl)propene], the IC50 in assay [3] (setting [7]) is 0.2 µM.

As for `COc1ccc(/C=C(\C)c2cc(OC)c(OC)c(OC)c2)cc1` [Compound 214], the figures for the IC50 in assay [1], in assay [2] and in assay [3] (setting [8]) were more than 10 µM, more than 25 µM and 0.8 µM, respectively.

Regarding `CCOc1cc(/C=C/c2ccc(OC)c(O)c2)cc(OCC)c1OCC` [Compound 254], the IC50 is more than 10 µM in assay [1]; more than 25 µM in assay [2]; 0.2 µM in assay [3] (MTT, read-out: K562 IC50).

In the case of `COc1ccc(/C=C(\C)c2cc(OC)c(OC)c(OC)c2)cc1O` [Compound 211], the IC50 is more than 10 µM in assay [1], more than 25 µM in assay [2], 0.7 µM in assay [3] (setting [7]) and 0.7 µM in assay [3] (setting [6]).

As for `CC/C(=C\c1ccc(OC)c(O)c1)c1cc(OC)c(OC)c(OC)c1` [Compound 220], the values for the IC50 in assay [1], in assay [2] and in assay [3] (setting [8]) were more than 10 µM, more than 25 µM and 4 µM, respectively.

For `CCOc1cc(C=Cc2ccc(OC)c(Cl)c2)cc(OCC)c1OCC` [Compound 257], the IC50 in assay [1] was more than 10 µM; in assay [2] it was more than 25 µM; in assay [3] (setting [7]), 0.45 µM.

For `COc1ccc(C=C(C)c2cc(OC)c(OC)c(OC)c2)cc1O[Si](C)(C)C(C)(C)C` [Compound 208], the IC50 in assay [1] is 1.5 µM; in assay [2] it was more than 25 µM; in assay [3] (setting [6]), 0.2 µM.

Take `COC(=O)C(=Cc1ccc(OC)c(O)c1)c1cc(OC)c(OC)c(OC)c1` [Compound 81]: the IC50 in assay [1] was more than 10 µM; in assay [2], more than 25 µM; in assay [3] (setting [6]) it was more than 50 µM.

Take `COc1ccc(/C=C(\C)c2cc(OC)c(OC)c(OC)c2)cc1O[Si](C)(C)C(C)(C)C` [Compound 17b, E-1-(3′-t-Butyldimethylsilyloxy-4′-methoxyphenyl)-2-(3″,4″,5″-trimethoxyphenyl)propene]: the IC50 in assay [3] (setting [7]) worked out at 6 µM.

As for `COc1ccc(/C=C/c2cc(O)c(OC)c(OC)c2)cc1F` [Compound 243], the IC50 in assay [1] is more than 10 µM; in assay [2] it was more than 25 µM; in assay [3] (MTT, read-out: K562 IC50), 5 µM.

Turning to `COc1ccc(/C=C(\C)c2cc(OC)c(OC)c(OC)c2)cc1O[Si](C)(C)C(C)(C)C` [Compound 209], the values for the IC50 in assay [1], in assay [2] and in assay [3] (setting [8]) were more than 10 µM, more than 25 µM and 6 µM, respectively.

The values are drawn from patent US7220784B2, “Substituted stilbenes and their reactions” (priority 2000, dated 2007).
